{"source": "patent US10039779B2", "about": "“Combination formulation of two antiviral compounds” (priority 2013, dated 2018)", "assay_type_in_all_cases": "physicochemical", "key": {"[1]": {"experiment": "Aqueous solubility with 0.1% w/w surfactants and polymers; dissolution behavior of forms", "settings": "for solubility: thermodynamic from solid", "protocol": "Excess solid was added to aqueous buffered solutions; samples were withdrawn at predetermined intervals (2, 5, 8, 10, 15, 20, 30, 45, 60 minutes, and 24 hours), filtered through regenerated cellulose filters, and diluted for concentration measurement by the HPLC-UV method."}, "[2]": {"experiment": "pH-solubility profile and solubility in simulated intestinal media", "settings": "for solubility at 48 h: thermodynamic from solid", "protocol": "Excess solid ledipasvir was added to a range of pH-adjusted aqueous solutions (titrated with HCl or NaOH) and stirred for 48 hours at room temperature. The suspensions were then filtered through regenerated cellulose syringe filters. The pH value of the supernatant was measured, and the supernatant was diluted as appropriate with 50:50 H2O+0.1% TFA:ACN and assayed for ledipasvir content by the HPLC-UV method.\nSolubility of ledipasvir amorphous free base was assessed in three types of simulated intestinal fluids at pH 6.5 or pH 5.0; and simulated intestinal bile salt and lecithin mixture (SIBLM), pH 6.4. Excess solid ledipasvir was added to the respective SIFs and stirred for 48 hours at room temperature. The resulting suspensions were then filtered through regenerated cellulose syringe filters. The supernatant was diluted as appropriate with 50:50 H2O+0.1% TFA:ACN and assayed for ledipasvir content by the HPLC-UV method."}, "[3]": {"experiment": "Excipient and organic solvent solubility", "settings": "thermodynamic from solid", "protocol": "Solubility of ledipasvir amorphous free base and ledipasvir crystalline D-tartrate was measured in a wide range of pharmaceutically acceptable solvents, including cosolvents, surfactants, fatty acids, triglycerides, or blends thereof. Material was weighed into scintillation vials and stirred for up to 48 hours at room temperature. In many cases, solubility was higher than the amount of solid used in the sample, thus many results are reported as ‘greater than’ or ‘greater than or equal to’ if the concentration was not quantitatively determined by HPLC-UV."}}, "data": [{"compound": "COC(=O)N[C@H](C(=O)N1CC2(CC2)C[C@H]1c1ncc(-c2ccc3c(c2)C(F)(F)c2cc(-c4ccc5nc([C@@H]6[C@H]7CC[C@H](C7)N6C(=O)[C@@H](NC(=O)OC)C(C)C)[nH]c5c4)ccc2-3)[nH]1)C(C)C", "note": "[Ledipasvir amorphous free base]", "values": [{"measurement": "dissolution behavior relative to other ledipasvir forms", "setting": "[1]; aqueous buffered solutions", "result": "faster than that of the crystalline free base and acetone solvate forms"}, {"measurement": "solubility", "setting": "[1]; aqueous citrate buffer with excipient, pH 2, aqueous with cosolvent or surfactant or cyclodextrin, 0.1% w/w PVP (povidone), pH 2", "result": 5470, "unit": "µg/mL"}, {"measurement": "solubility", "setting": "[1]; aqueous citrate buffer with excipient, pH 2, aqueous with cosolvent or surfactant or cyclodextrin, 0.1% w/w PVP/VA (copovidone), pH 2", "result": 6730, "unit": "µg/mL"}, {"measurement": "solubility", "setting": "[1]; aqueous citrate buffer with excipient, pH 2, aqueous with cosolvent or surfactant or cyclodextrin, 0.1% w/w Sodium lauryl sulfate, pH 2", "result": 50, "unit": "µg/mL"}, {"measurement": "solubility", "setting": "[1]; aqueous citrate buffer with excipient, pH 5, aqueous with cosolvent or surfactant or cyclodextrin, 0.1% w/w PVP (povidone), pH 5", "result": 0.4, "unit": "µg/mL"}, {"measurement": "solubility", "setting": "[1]; aqueous citrate buffer with excipient, pH 5, aqueous with cosolvent or surfactant or cyclodextrin, 0.1% w/w PVP/VA (copovidone), pH 5", "result": 1, "unit": "µg/mL"}, {"measurement": "solubility", "setting": "[1]; aqueous citrate buffer with excipient, pH 5, aqueous with cosolvent or surfactant or cyclodextrin, 0.1% w/w Sodium lauryl sulfate, pH 5", "result": 243, "unit": "µg/mL"}, {"measurement": "solubility", "setting": "[1]; aqueous citrate buffer, no excipient, pH 2, aqueous buffer, pH 2, room temperature", "result": 4940, "unit": "µg/mL"}, {"measurement": "solubility", "setting": "[1]; aqueous citrate buffer, no excipient, pH 5, aqueous buffer, pH 5, room temperature", "result": 0.1, "unit": "µg/mL"}, {"measurement": "solubility", "setting": "[1]; pH 2, aqueous with cosolvent or surfactant or cyclodextrin, 0.1% w/w Cremaphor EL, pH 2", "result": 9110, "unit": "µg/mL"}, {"measurement": "solubility", "setting": "[1]; pH 2, aqueous with cosolvent or surfactant or cyclodextrin, 0.1% w/w HPC (hydroxypropylcellulose), pH 2", "result": 4670, "unit": "µg/mL"}, {"measurement": "solubility", "setting": "[1]; pH 2, aqueous with cosolvent or surfactant or cyclodextrin, 0.1% w/w HPMC (hydroxymethylcellulose), pH 2", "result": 5270, "unit": "µg/mL"}, {"measurement": "solubility", "setting": "[1]; pH 2, aqueous with cosolvent or surfactant or cyclodextrin, 0.1% w/w Labrasol, pH 2", "result": 7440, "unit": "µg/mL"}, {"measurement": "solubility", "setting": "[1]; pH 2, aqueous with cosolvent or surfactant or cyclodextrin, 0.1% w/w Poloxamer 188, pH 2", "result": 7190, "unit": "µg/mL"}, {"measurement": "solubility", "setting": "[1]; pH 2, aqueous with cosolvent or surfactant or cyclodextrin, 0.1% w/w Polysorbate 80, pH 2", "result": 9270, "unit": "µg/mL"}, {"measurement": "solubility", "setting": "[1]; pH 5, aqueous with cosolvent or surfactant or cyclodextrin, 0.1% w/w Cremaphor EL, pH 5", "result": 69.9, "unit": "µg/mL"}, {"measurement": "solubility", "setting": "[1]; pH 5, aqueous with cosolvent or surfactant or cyclodextrin, 0.1% w/w HPC (hydroxypropylcellulose), pH 5", "result": 0.1, "unit": "µg/mL"}, {"measurement": "solubility", "setting": "[1]; pH 5, aqueous with cosolvent or surfactant or cyclodextrin, 0.1% w/w HPMC (hydroxymethylcellulose), pH 5", "result": 0.3, "unit": "µg/mL"}, {"measurement": "solubility", "setting": "[1]; pH 5, aqueous with cosolvent or surfactant or cyclodextrin, 0.1% w/w Poloxamer 188, pH 5", "result": 0.5, "unit": "µg/mL"}, {"measurement": "solubility", "setting": "[1]; pH 5, aqueous with cosolvent or surfactant or cyclodextrin, 0.1% w/w Polysorbate 80, pH 5", "result": 62.4, "unit": "µg/mL"}, {"measurement": "solubility", "setting": "[2]; Aqueous, pH 1.6 (HCl), room temperature", "result": 6855, "unit": "µg/mL"}, {"measurement": "solubility", "setting": "[2]; Aqueous, pH 2.3 (HCl), room temperature", "result": 1096, "unit": "µg/mL"}, {"measurement": "solubility at 48 h", "setting": "[2]; FaSSIF, pH 6.5, fassif, FaSSIF pH = 6.5, room temperature", "result": 25, "unit": "µg/mL"}, {"measurement": "solubility at 48 h", "setting": "[2]; FeSSIF, pH 5, fessif, FeSSIF pH = 5.0, room temperature", "result": 230, "unit": "µg/mL"}, {"measurement": "solubility at 48 h", "setting": "[2]; SIBLM (simulated intestinal bile salt and lecithin mixture), pH 6.4, fassgf or other biorelevant, SIBLM pH = 6.4, room temperature", "result": 232, "unit": "µg/mL"}, {"measurement": "intrinsic solubility (S0)", "setting": "[2]; aqueous, neutral form (pH>5), room temperature", "result": "approximately 0.04 μg/mL"}, {"measurement": "solubility at 48 h", "setting": "[2]; pH-adjusted aqueous solution (HCl), pH 1.6, aqueous buffer, Aqueous, pH 1.6 (HCl), room temperature", "result": "~7000", "unit": "µg/mL"}, {"measurement": "solubility at 48 h", "setting": "[2]; pH-adjusted aqueous solution (HCl), pH 2.3, aqueous buffer, Aqueous, pH 2.3 (HCl), room temperature", "result": 1000, "unit": "µg/mL"}, {"measurement": "solubility at 48 h", "setting": "[2]; pH-adjusted aqueous solution, pH 3.1, aqueous buffer, Aqueous, pH 3.1 (HCl), room temperature", "result": 13.2, "unit": "µg/mL"}, {"measurement": "solubility at 48 h", "setting": "[2]; pH-adjusted aqueous solution, pH 4.1, aqueous buffer, Aqueous, pH 4.1 (HCl), room temperature", "result": 0.11, "unit": "µg/mL"}, {"measurement": "solubility at 48 h", "setting": "[2]; pH-adjusted aqueous solution, pH 5.5, aqueous buffer, Aqueous, pH 5.5 (HCl), room temperature", "result": 0.03, "unit": "µg/mL"}, {"measurement": "solubility at 48 h", "setting": "[2]; pH-adjusted aqueous solution, pH 6.2, water, Aqueous, pH 6.2 (unaltered), room temperature", "result": 0.03, "unit": "µg/mL"}, {"measurement": "solubility at 48 h", "setting": "[2]; pH-adjusted aqueous solution, pH 7.2, aqueous buffer, Aqueous, pH 7.2 (NaOH), room temperature", "result": 0.01, "unit": "µg/mL"}, {"measurement": "increase of solubility in SIBLM over FaSSIF", "setting": "[2]; room temperature", "result": "approximately 10 fold"}, {"measurement": "solubility", "setting": "[3]; oil or lipid", "result": "> 500000", "unit": "µg/mL"}, {"measurement": "solubility", "setting": "[3]; pH 2.5, aqueous with cosolvent or surfactant or cyclodextrin", "result": 25000, "unit": "µg/mL"}]}]}
